Article PMC1431542, “Cyclic nucleotide specific phosphodiesterases of Leishmania major” (BMC Microbiology, 2006)

How the values were obtained:
[1] = biological target: T1, LmjPDEB1 (Leishmania major, UniProt Q6S996); assay: 3H-cAMP phosphodiesterase assay in yeast lysate; type: cell-based
T1 construct: gene PDEB1; full-length, hemagglutinin-tagged
T1 sequence (Q6S996 1-940): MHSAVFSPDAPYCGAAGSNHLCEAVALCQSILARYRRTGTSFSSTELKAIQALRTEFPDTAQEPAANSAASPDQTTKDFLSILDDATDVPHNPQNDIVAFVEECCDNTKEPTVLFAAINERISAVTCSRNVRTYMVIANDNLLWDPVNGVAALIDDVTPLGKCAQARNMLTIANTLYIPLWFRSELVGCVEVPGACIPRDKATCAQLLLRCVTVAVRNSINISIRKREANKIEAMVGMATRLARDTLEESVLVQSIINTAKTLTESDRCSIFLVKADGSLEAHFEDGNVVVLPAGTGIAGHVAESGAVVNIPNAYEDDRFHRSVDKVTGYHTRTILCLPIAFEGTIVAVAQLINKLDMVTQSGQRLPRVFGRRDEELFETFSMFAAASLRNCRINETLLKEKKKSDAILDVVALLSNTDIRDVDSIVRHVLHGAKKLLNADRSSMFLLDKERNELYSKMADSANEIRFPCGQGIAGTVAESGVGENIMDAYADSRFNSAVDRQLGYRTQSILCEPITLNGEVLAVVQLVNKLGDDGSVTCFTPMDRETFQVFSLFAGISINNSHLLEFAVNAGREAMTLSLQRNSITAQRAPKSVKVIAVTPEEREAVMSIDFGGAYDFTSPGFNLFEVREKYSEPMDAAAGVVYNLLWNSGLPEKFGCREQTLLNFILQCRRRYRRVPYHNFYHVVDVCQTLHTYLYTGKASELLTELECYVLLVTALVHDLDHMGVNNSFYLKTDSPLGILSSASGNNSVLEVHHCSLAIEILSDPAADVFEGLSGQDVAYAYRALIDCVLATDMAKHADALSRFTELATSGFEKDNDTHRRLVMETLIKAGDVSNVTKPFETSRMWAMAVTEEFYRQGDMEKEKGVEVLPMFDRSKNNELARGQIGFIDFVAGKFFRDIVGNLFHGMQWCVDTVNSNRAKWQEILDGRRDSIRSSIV

[2] = biological target: T2, LmjPDEB2 (Leishmania major, UniProt Q6S997); assay: biochemical
T2 construct: gene PDEB2; full-length, hemagglutinin-tagged
T2 sequence (Q6S997 entry or part of it): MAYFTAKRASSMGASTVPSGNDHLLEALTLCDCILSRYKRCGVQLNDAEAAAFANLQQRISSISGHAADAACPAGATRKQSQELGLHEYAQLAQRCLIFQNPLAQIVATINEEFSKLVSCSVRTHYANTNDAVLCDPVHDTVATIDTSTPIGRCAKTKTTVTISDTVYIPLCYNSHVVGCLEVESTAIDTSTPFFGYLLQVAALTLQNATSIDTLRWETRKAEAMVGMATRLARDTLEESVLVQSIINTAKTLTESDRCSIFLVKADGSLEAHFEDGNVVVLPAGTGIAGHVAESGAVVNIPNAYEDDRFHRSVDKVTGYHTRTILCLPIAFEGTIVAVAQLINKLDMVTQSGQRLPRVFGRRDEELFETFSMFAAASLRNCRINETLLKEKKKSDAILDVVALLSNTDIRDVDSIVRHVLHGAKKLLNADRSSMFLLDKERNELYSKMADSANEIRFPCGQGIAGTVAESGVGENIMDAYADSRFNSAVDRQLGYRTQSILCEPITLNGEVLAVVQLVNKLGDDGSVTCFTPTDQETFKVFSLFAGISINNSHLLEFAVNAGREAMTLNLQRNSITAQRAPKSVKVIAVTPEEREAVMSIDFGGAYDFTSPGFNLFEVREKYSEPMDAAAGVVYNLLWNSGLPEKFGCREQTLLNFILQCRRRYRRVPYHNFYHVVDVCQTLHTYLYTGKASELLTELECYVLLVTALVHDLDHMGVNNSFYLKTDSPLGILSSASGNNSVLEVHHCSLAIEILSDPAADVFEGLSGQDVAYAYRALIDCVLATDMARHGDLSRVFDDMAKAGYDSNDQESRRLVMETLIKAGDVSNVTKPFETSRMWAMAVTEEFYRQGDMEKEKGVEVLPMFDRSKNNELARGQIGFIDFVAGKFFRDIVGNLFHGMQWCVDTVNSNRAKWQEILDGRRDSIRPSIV

Structure (SMILES)	3H-cAMP phosphodiesterase assay in yeast lysate [1]	IC50 [2] [µM]
COc1cc2c(cc1OC)-c1c/c(=N\c3c(C)cc(C)cc3C)n(C)c(=O)n1CC2 [compound 9, trequinsin]	Only dipyridamole, trequinsin and etazolate exhibited at least a moderate potency.	96
CCOC(=O)c1cnc2c(cnn2CC)c1NN=C(C)C [compound 3, etazolate]	Only dipyridamole, trequinsin and etazolate exhibited at least a moderate potency.	–
OCCN(CCO)c1nc(N2CCCCC2)c2nc(N(CCO)CCO)nc(N3CCCCC3)c2n1 [compound 4, dipyridamole]	Only dipyridamole, trequinsin and etazolate exhibited at least a moderate potency.	29
